Reference: patent US20170266257A1, “METHODS OF TREATING TRAUMATIC BRAIN INJURY” (OXEIA BIOPHARMACEUTICALS, INC., priority 2014, published 2017)

How the values were obtained:
GHS-R = GHS-R (Homo sapiens, UniProt Q92847); test: cell based assay of GHS-R antagonist activity (Table 4)
ischemic brain injury = details: after ischemic brain injury; cited from earlier work
[1] = tested on: rat model of Parkinson's disease; details: cited from earlier work

Sequence of GHS-R (Q92847 whole entry): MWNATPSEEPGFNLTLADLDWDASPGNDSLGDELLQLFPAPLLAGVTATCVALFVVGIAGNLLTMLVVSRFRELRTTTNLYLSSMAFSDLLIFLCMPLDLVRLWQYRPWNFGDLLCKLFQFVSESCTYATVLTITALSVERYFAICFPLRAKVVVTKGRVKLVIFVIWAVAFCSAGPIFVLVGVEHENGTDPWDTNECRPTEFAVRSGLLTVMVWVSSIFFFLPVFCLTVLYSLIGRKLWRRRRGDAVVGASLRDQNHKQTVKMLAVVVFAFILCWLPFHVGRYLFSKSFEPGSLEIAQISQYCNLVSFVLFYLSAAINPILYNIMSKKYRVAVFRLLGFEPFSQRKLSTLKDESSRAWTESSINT

Row | Molecule | Ki (GHS-R) [nM] | neuroprotection (ischemic brain injury) | motor function [1]
1 | CCN(CC)CCCS(=O)(=O)N[C@H](CCc1ccccc1)c1nc(-c2cncn2C)n[nH]1 [Compound 135] | < 100 |  | 
2 | 3-Diethylamino-propane-1-sulfonic acid {(R)-1-[3-(5-bromo-pyridin-3-yl)-[1,2,4]oxadiazol-5-yl]-phenyl-propyl}-amide [Compound 103] | 100 to 500 |  | 
3 | C=CC[C@]12CCCN1C(=O)CNC2=O [NNZ-2591, cyclo-L-glycyl-L-2-allylproline] |  | neuroprotective | improves motor function
